Assay results published in patent US20250011288A1 (BRISTOL-MYERS SQUIBB COMPANY, priority 2021, published 2025).

The compounds below were run against T1, human RXFP1 (Homo sapiens, UniProt Q9HBX9) (assay: human RXFP1 (hRXFP1) HEK293 cAMP assay (HTRF)). Settings: HEK293 cells stably expressing human RXFP1, 30 min at room temperature.
T1 construct: expressed in transfected cells
T1 sequence (Q9HBX9 1-757): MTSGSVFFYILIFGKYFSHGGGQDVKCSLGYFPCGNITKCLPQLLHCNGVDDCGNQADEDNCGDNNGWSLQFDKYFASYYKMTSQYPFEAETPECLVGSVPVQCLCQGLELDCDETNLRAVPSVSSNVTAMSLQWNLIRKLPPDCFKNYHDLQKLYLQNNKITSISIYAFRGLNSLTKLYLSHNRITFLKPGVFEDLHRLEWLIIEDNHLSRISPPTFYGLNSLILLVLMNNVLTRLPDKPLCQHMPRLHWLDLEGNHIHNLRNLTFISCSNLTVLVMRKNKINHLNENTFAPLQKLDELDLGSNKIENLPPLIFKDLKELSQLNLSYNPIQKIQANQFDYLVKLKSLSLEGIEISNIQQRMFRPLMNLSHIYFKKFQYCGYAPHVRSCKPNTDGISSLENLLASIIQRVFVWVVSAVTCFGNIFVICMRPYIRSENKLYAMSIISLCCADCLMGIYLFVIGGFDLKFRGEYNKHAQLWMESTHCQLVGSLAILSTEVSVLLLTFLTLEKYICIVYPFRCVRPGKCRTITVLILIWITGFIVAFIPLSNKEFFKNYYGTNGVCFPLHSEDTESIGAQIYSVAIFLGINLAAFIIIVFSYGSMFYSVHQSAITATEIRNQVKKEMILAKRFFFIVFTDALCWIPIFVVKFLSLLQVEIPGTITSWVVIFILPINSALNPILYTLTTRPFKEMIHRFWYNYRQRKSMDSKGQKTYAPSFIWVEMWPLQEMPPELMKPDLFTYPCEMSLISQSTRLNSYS
Type: cell-based
Method: RXFP1 Cyclic Adenosine Monophosphate (cAMP) Assays. […] Cells were dissociated and suspended in assay buffer. The assay buffer was HBSS buffer (with calcium and magnesium) containing 20 mM HEPES, 0.05% BSA, and 0.5 mM IBMX. Cells (3000 cells per well, except 1500 cell per well for HEK293 cells stably expressing human RXFP1) were added to 384-well Proxiplates (Perkin-Elmer). Cells were immediately treated with test compounds in DMSO (2% final) at final concentrations in the range of 0.010 nM to 50 µM. Cells were incubated for 30 min at room temperature. The level of intracellular cAMP was determined using the HTRF HiRange cAMP assay reagent kit (Cisbio) according to manufacturer's instructions. Solutions of cryptate conjugated anti-cAMP and d2 fluorophore-labelled cAMP were made in a supplied lysis buffer separately. Upon completion of the reaction, the cells were lysed with equal volume of the d2-cAMP solution and anti-cAMP solution. […] The potency and activity of a compound to […] cAMP production was then determined by fitting to a 4-parametric logistic equation from a plot of cAMP level versus compound concentrations.

In order of rising EC50:
1. COc1ncc(C2=NOC3CC(O)CC23)cc1C(=O)N[C@H]1[C@@H](C(=O)Nc2ccc(F)c(C(F)(F)F)c2)[C@H]2CC[C@@H]1/C2=C\CCC(F)(F)F (stereo partly drawn) [Example 121, N-((1R,2R,3S,4R,Z)-3-((4-fluoro-3-(trifluoromethyl)phenyl)carbamoyl)-7-(4,4,4-trifluorobutylidene)bicyclo[2.2.1]heptan-2-yl)-5-(5-hydroxy-3a,5,6,6a-tetrahydro-4H-cyclopenta[d]isoxazol-3-yl)-2-methoxynicotinamide]  1.3 nM
2. CNC(=O)O[C@@H](c1ccc(F)c(-c2cnc(OC)c(C(=O)N[C@@H]3C4CCC(/C4=C/C4CC4)[C@@H]3C(=O)Nc3ccc(F)c(C(F)(F)F)c3)c2)c1)C(F)(F)F (stereo partly drawn) [Example 182, (1S)-1-[3-(5-{[(2R,3S,7Z)-7-(cyclopropyl-methylidene)-3-{[4-fluoro-3-(trifluoromethyl)phenyl]carbamoyl}bicyclo[2.2.1]heptan-2-yl]carbamoyl}-6-methoxypyridin-3-yl)-4-fluorophenyl]-2,2,2-trifluoroethyl N-methylcarbamate]  2.6 nM
3. COc1ncc(C2=NOC3CC(C(O)C(F)(F)F)CC23)cc1C(=O)N[C@H]1[C@@H](C(=O)Nc2ccc(F)c(C(F)(F)F)c2)[C@H]2CC[C@@H]1/C2=C\C1CCC1 (stereo partly drawn) [Example 122, N-((1R,2R,3S,4R,Z)-7-(cyclobutyl-methylene)-3-((4-fluoro-3-(trifluoromethyl)phenyl)carbamoyl)bicyclo[2.2.1]heptan-2-yl)-2-methoxy-5-(5-(2,2,2-trifluoro-1-hydroxyethyl)-3a,5,6,6a-tetrahydro-4H-cyclopenta[d]isoxazol-3-yl)nicotinamide]  2.6 nM
4. COc1ncc(C2=NOC3COCC23)cc1C(=O)N[C@H]1[C@@H](C(=O)N[C@H](C)C2(C)CC2)[C@H]2CC[C@@H]1/C2=C\C1CC1 (stereo partly drawn) [Example 137, N-((1R,2R,3S,4R,Z)-7-(cyclopropyl-methylene)-3-(((R)-1-(1-methylcyclopropyl)ethyl)carbamoyl)bicyclo[2.2.1]heptan-2-yl)-2-methoxy-5-(3a,4,6,6a-tetrahydrofuro[3,4-d]isoxazol-3-yl)nicotinamide]  3 nM
5. COc1ncc(C2=NOC3COCC23)cc1C(=O)N[C@H]1[C@@H](C(=O)N[C@H](C)C2(C)CC2)[C@H]2CC[C@@H]1/C2=C\c1csc(C(F)F)n1 (stereo partly drawn) [Example 100, N-((1R,2R,3S,4R,Z)-7-((2-(difluoromethyl)thiazol-4-yl)methylene)-3-(((R)-1-(1-methylcyclopropyl)ethyl)carbamoyl)bicyclo[2.2.1]heptan-2-yl)-2-methoxy-5-(3a,4,6,6a-tetrahydrofuro[3,4-d]isoxazol-3-yl)nicotinamide]  3.4 nM
6. COc1ncc(C2=NOC3CC(C(C)O)CC23)cc1C(=O)N[C@H]1[C@@H](C(=O)Nc2ccc(F)c(C(F)(F)F)c2)[C@H]2CC[C@@H]1/C2=C\C1CC1 (stereo partly drawn) [Example 112, N-((1R,2R,3S,4R,Z)-7-(cyclopropyl-methylene)-3-((4-fluoro-3-(trifluoromethyl)phenyl)carbamoyl)bicyclo[2.2.1]heptan-2-yl)-5-(5-(1-hydroxyethyl)-3a,5,6,6a-tetrahydro-4H-cyclopenta[d]isoxazol-3-yl)-2-methoxynicotinamide]  3.9 nM
7. COc1ncc(-c2cc([C@H](OC(=O)N3CC4(COC4)C3)C(F)(F)F)ccc2F)cc1C(=O)N[C@@H]1C2CCC(/C2=C/C2CC2)[C@@H]1C(=O)Nc1ccc(F)c(C(F)(F)F)c1 (stereo partly drawn) [Example 184, (1S)-1-[3-(5-{[(2R,3S,7Z)-7-(cyclopropyl-methylidene)-3-{[4-fluoro-3-(trifluoromethyl)phenyl]carbamoyl}bicyclo[2.2.1]heptan-2-yl]carbamoyl}-6-methoxypyridin-3-yl)-4-fluorophenyl]-2,2,2-trifluoroethyl 2-oxa-6-azaspiro[3.3] heptane-6-carboxylate]  4.8 nM
8. COc1ncc(C2=NOC3CC(C(O)C(F)(F)F)CC23)cc1C(=O)N[C@H]1[C@@H](C(=O)Nc2ccc(F)c(C(F)(F)F)c2)[C@H]2CC[C@@H]1/C2=C\CC(O)C(F)(F)F (stereo partly drawn) [Example 129, N-((1R,2R,3S,4R,Z)-3-((4-fluoro-3-(trifluoromethyl)phenyl)carbamoyl)-7-(4,4,4-trifluoro-3-hydroxybutylidene)bicyclo[2.2.1]heptan-2-yl)-2-methoxy-5-(5-(2,2,2-trifluoro-1-hydroxyethyl)-3a,5,6,6a-tetrahydro-4H-cyclopenta[d]isoxazol-3-yl)nicotinamide]  5 nM
9. CC1Cc2cc(C3=NOC4CC(CO)CC34)cc(C(=O)N[C@@H]3C4CCC(/C4=C/C4CC4)[C@@H]3C(=O)N[C@H](C)C3(C)CC3)c2O1 (stereo partly drawn) [Example 152]  9 nM
10. COc1ncc(-c2cc(C(=O)O)ccc2F)cc1C(=O)N[C@@H]1C2CCC(/C2=C/C(F)(F)F)[C@@H]1C(=O)Nc1ccc(F)c(C(F)(F)F)c1 (stereo partly drawn) [Example 28, 4-Fluoro-3-(5-{[(2R,3S,7Z)-3-{[4-fluoro-3-(trifluoromethyl)phenyl]carbamoyl}-7-(2,2,2-trifluoroethylidene)bicyclo[2. 2.1]heptan-2-yl]carbamoyl}-6-methoxypyridin-3-yl)benzoic acid]  34 nM
11. COc1cnc(-c2cc([C@H](OC(=O)NC3CCC3)C(F)(F)F)ccc2F)nc1C(=O)N[C@@H]1C2CCC(/C2=C/C(F)(F)F)[C@@H]1C(=O)Nc1ccc(F)c(C(F)(F)F)c1 (stereo partly drawn) [Example 37, (1S)-2,2,2-trifluoro-1-14-fluoro-3-(4-{[(2R,3S,7Z)-3-{[4-fluoro-3-(trifluoromethyl)phenyl]carbamoyl}-7-(2,2,2-trifluoroethylidene)bicyclo[2.2.1]heptan-2-yl]carbamoyl}-5-methoxypyrimidin-2-yl)phenyl]ethyl N-cyclobutylcarbamate]  95 nM
12. COc1ccc(-c2cc(C(=O)O)ccc2F)nc1C(=O)N[C@@H]1C2CCC(/C2=C/c2cnoc2)[C@@H]1C(=O)Nc1ccc(F)c(C(F)(F)F)c1 (stereo partly drawn) [Example 27, 4-Fluoro-3-(6-{[(2R,3S,7Z)-3-{[4-fluoro-3-(trifluoromethyl)phenyl]carbamoyl}-7-[(1,2-oxazol-4-yl)methylidene]bicyclo[2.2.1]heptan-2-yl]carbamoyl}-5-methoxypyridin-2-yl)benzoic acid]  290 nM
13. O=C(N[C@@H]1C2CCC(/C2=C/C(F)(F)F)[C@@H]1C(=O)Nc1ccc(F)c(C(F)(F)F)c1)c1nc(Br)cnc1OCCO (stereo partly drawn) [Example 48]  880 nM
14. COc1ncc(Cl)cc1C(=O)N[C@@H]1C2CCC(/C2=C/C(F)(F)F)[C@@H]1C(=O)Nc1ccc(F)c(C(F)(F)F)c1 (stereo partly drawn) [Example 11, 5-chloro-N-[(2R,3S,7Z)-3-{[4-fluoro-3-(trifluoromethyl)phenyl]carbamoyl}-7-(2,2,2-trifluoroethylidcne)bicyclo[2. 2.1]heptan-2-yl]-2-methoxypyridine-3-carboxamide]  940 nM
15. COc1ncc(Br)nc1C(=O)N[C@@H]1C2CCC(C2=C(C)C)[C@@H]1C(=O)Nc1ccc(F)c(C(F)(F)F)c1 (stereo partly drawn) [Example 5, 6-bromo-N-[(2R,3S)-3-{[4-fluoro-3-(trifluoromethyl)phenyl]carbamoyl}-7-(propan-2-ylidenc)bicyclo [2.2.1]heptan-2-yl]-3-methoxypyrazine-2-carboxamide]  1100 nM
16. COc1ccc(-c2ccc(C(=O)O)cc2)nc1C(=O)N[C@@H]1C2CCC(C2=C(C)C)[C@@H]1C(=O)Nc1ccc(F)c(C(F)(F)F)c1 (stereo partly drawn) [Example 22, 4-(6-{[(2R,3S)-3-{[4-fluoro-3-(trifluoromethyl)phenyl]carbamoyl}-7-(propan-2-ylidene)bicyclo [2.2.1]heptan-2-yl]carbamoyl}-5-methoxypyridin-2-yl)benzoic acid]  1700 nM
17. COc1cc2c(cc1C(=O)N[C@H]1[C@@H](C(=O)Nc3ccc(F)c(C(F)(F)F)c3)[C@H]3CC[C@@H]1/C3=C\C1CC1)CCN(CCCO)C2 [Example 90, N-((1R,2R,3S,4R,Z)-7-(cyclopropylmethylene)-3-((4-fluoro-3-(trifluoromethyl)phenyl)carbamoyl)bicyclo[2.2.1]heptan-2-yl)-2-(3-hydroxypropyl)-7-methoxy-1,2,3,4-tetrahydroisoquinoline-6-carboxamide]  2400 nM
18. COc1cc(C(=O)N[C@@H]2C3CCC(C3=C(C)C)[C@@H]2C(=O)Nc2ccc(F)c(C(F)(F)F)c2)c(OC)nn1 (stereo partly drawn) [Example 4, N-[(2R,3S)-3-{[4-fluoro-3-(trifluoromethyl)phenyl]carbamoyl}-7-(propan-2-ylidene)bicyclo [2.2.1]heptan-2-yl]-3,6-dimethoxy-pyridazine-4-carboxamide]  5000 nM
